According to the supplement of paper PMC10307832:

Columns and labels:
Assay in all cases: relative viability (nuclei count vs DMSO), 5 days (fraction); higher = more cells survive
LOU-NH91 = tested on: LOU-NH91
Procedure, shortened: (§1)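 After 5 days of treatment, lung cancer cells in 1536-well plates were fixed and stained in a single step (final 0.05% Triton X-100, 1% formaldehyde, 1 ug/ml Hoechst) and their nuclei counted on 4× images. Treatment had been applied by pin tool the day after seeding as one drug alone or as a fixed anchor-drug dose with five library-drug doses (not always all listed) in √10 steps. Relative viability is the nuclei count of treated wells divided by that of vehicle wells, and values are medians of duplicate plates.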

201T = tested on: 201T
Procedure, shortened: as §1

NCI-H1993 = tested on: NCI-H1993
Procedure, shortened: as §1

NCI-H2085 = tested on: NCI-H2085
Procedure, shortened: as §1

NCI-H441 = tested on: NCI-H441
Procedure, shortened: as §1

NCI-H3122 = tested on: NCI-H3122
Procedure, shortened: as §1

NCI-H1563 = tested on: NCI-H1563
Procedure, shortened: as §1

NCI-H1793 = tested on: NCI-H1793
Procedure, shortened: as §1

NCI-H2170 = tested on: NCI-H2170
Procedure, shortened: as §1

NCI-H520 = tested on: NCI-H520
Procedure, shortened: as §1

RERF-LC-KJ = tested on: RERF-LC-KJ
Procedure, shortened: as §1

NCI-H2023 = tested on: NCI-H2023
Procedure, shortened: as §1

SW 900 = tested on: SW 900
Procedure, shortened: as §1

HCC-44 = tested on: HCC-44
Procedure, shortened: as §1

NCI-H1650 = tested on: NCI-H1650
Procedure, shortened: as §1

COR-L23 = tested on: COR-L23
Procedure, shortened: as §1

EPLC-272H = tested on: EPLC-272H
Procedure, shortened: as §1

NCI-H2405 = tested on: NCI-H2405
Procedure, shortened: as §1

NCI-H647 = tested on: NCI-H647
Procedure, shortened: as §1

PC-14 = tested on: PC-14
Procedure, shortened: as §1

NCI-H2347 = tested on: NCI-H2347
Procedure, shortened: as §1

EKVX = tested on: EKVX
Procedure, shortened: as §1

NCI-H1734 = tested on: NCI-H1734
Procedure, shortened: as §1

For COc1cc(N2CCC(C(N)=O)CC2)ccc1Nc1nc(N)c(Cl)c(Nc2ccccc2S(=O)(=O)C(C)C)n1 [HG-5-88-01] + Nc1nc2[nH]cc(CCc3ccc(C(=O)N[C@@H](CCC(=O)O)C(=O)O)cc3)c2c(=O)[nH]1 [Pemetrexed] (partner 0.2 µM), the relative viability (LOU-NH91; first compound 0.04 µM) was 0.38, the relative viability (LOU-NH91; first compound 0.1265 µM) was 0.44 and the relative viability (LOU-NH91; first compound 0.4 µM) was 0.376. It also gave a relative viability (LOU-NH91; first compound 1.265 µM) of 0.456, a relative viability (LOU-NH91; first compound 4 µM) of 0.522 and a relative viability (201T; first compound 0.04 µM) of 0.301. It also gave a relative viability (201T; first compound 0.1265 µM) of 0.325, a relative viability (201T; first compound 1.265 µM) of 0.332 and a relative viability (201T; first compound 4 µM) of 0.272. It also gave a relative viability (NCI-H1993; first compound 0.04 µM) of 0.56, a relative viability (NCI-H1993; first compound 0.1265 µM) of 0.577 and a relative viability (NCI-H1993; first compound 0.4 µM) of 0.552. For the same compound, the relative viability (NCI-H1993; first compound 4 µM) was 0.554, the relative viability (NCI-H2085; first compound 0.04 µM) was 0.911 and the relative viability (NCI-H2085; first compound 0.1265 µM) was 0.986. The relative viability (NCI-H2085; first compound 0.4 µM) was 0.864, the relative viability (NCI-H2085; first compound 1.265 µM) was 0.861 and the relative viability (NCI-H2085; first compound 4 µM) was 0.698. The relative viability (NCI-H441; first compound 0.04 µM) was 0.28, the relative viability (NCI-H441; first compound 0.1265 µM) was 0.279 and the relative viability (NCI-H441; first compound 0.4 µM) was 0.229. The relative viability (NCI-H441; first compound 1.265 µM) was 0.276, the relative viability (NCI-H441; first compound 4 µM) was 0.258 and the relative viability (NCI-H3122; first compound 0.04 µM) was 0.171. The relative viability (NCI-H3122; first compound 0.1265 µM) was 0.161, the relative viability (NCI-H3122; first compound 0.4 µM) was 0.144 and the relative viability (NCI-H3122; first compound 1.265 µM) was 0.157. It also gave a relative viability (NCI-H3122; first compound 4 µM) of 0.115, a relative viability (NCI-H1563; first compound 0.04 µM) of 0.798 and a relative viability (NCI-H1563; first compound 0.1265 µM) of 0.754. The relative viability (NCI-H1563; first compound 0.4 µM) was 0.767, the relative viability (NCI-H1563; first compound 1.265 µM) was 0.652 and the relative viability (NCI-H1563; first compound 4 µM) was 0.973. The relative viability (NCI-H1793; first compound 0.04 µM) was 0.829, the relative viability (NCI-H1793; first compound 0.1265 µM) was 0.8 and the relative viability (NCI-H1793; first compound 0.4 µM) was 0.828. For the same compound, the relative viability (NCI-H1793; first compound 1.265 µM) was 0.692, the relative viability (NCI-H1793; first compound 4 µM) was 0.522 and the relative viability (NCI-H2170; first compound 0.04 µM) was 0.286. It also gave a relative viability (NCI-H2170; first compound 0.1265 µM) of 0.28, a relative viability (NCI-H2170; first compound 0.4 µM) of 0.261 and a relative viability (NCI-H2170; first compound 1.265 µM) of 0.257. It also gave a relative viability (NCI-H2170; first compound 4 µM) of 0.249, a relative viability (NCI-H520; first compound 0.04 µM) of 0.604 and a relative viability (NCI-H520; first compound 0.1265 µM) of 0.592. For the same compound, the relative viability (NCI-H520; first compound 0.4 µM) was 0.454, the relative viability (NCI-H520; first compound 1.265 µM) was 0.737 and the relative viability (NCI-H520; first compound 4 µM) was 0.61. For the same compound, the relative viability (RERF-LC-KJ; first compound 0.04 µM) was 0.521, the relative viability (RERF-LC-KJ; first compound 0.1265 µM) was 0.509 and the relative viability (RERF-LC-KJ; first compound 0.4 µM) was 0.448. The relative viability (RERF-LC-KJ; first compound 1.265 µM) was 0.446, the relative viability (RERF-LC-KJ; first compound 4 µM) was 0.239 and the relative viability (NCI-H2023; first compound 0.04 µM) was 0.231. The relative viability (NCI-H2023; first compound 0.1265 µM) was 0.23, the relative viability (NCI-H2023; first compound 0.4 µM) was 0.175 and the relative viability (NCI-H2023; first compound 1.265 µM) was 0.165. It also gave a relative viability (NCI-H2023; first compound 4 µM) of 0.171, a relative viability (SW 900; first compound 0.04 µM) of 0.504 and a relative viability (SW 900; first compound 0.1265 µM) of 0.512. The relative viability (SW 900; first compound 0.4 µM) was 0.46, the relative viability (SW 900; first compound 1.265 µM) was 0.477 and the relative viability (SW 900; first compound 4 µM) was 0.379. For the same compound, the relative viability (HCC-44; first compound 0.04 µM) was 0.596, the relative viability (HCC-44; first compound 0.1265 µM) was 0.662 and the relative viability (HCC-44; first compound 0.4 µM) was 0.538. For the same compound, the relative viability (HCC-44; first compound 1.265 µM) was 0.699, the relative viability (HCC-44; first compound 4 µM) was 0.69 and the relative viability (NCI-H1650; first compound 0.04 µM) was 0.352. The relative viability (NCI-H1650; first compound 0.1265 µM) was 0.36, the relative viability (NCI-H1650; first compound 0.4 µM) was 0.346 and the relative viability (NCI-H1650; first compound 1.265 µM) was 0.343. The relative viability (NCI-H1650; first compound 4 µM) was 0.354, the relative viability (COR-L23; first compound 0.04 µM) was 0.196 and the relative viability (COR-L23; first compound 0.1265 µM) was 0.208. For the same compound, the relative viability (COR-L23; first compound 0.4 µM) was 0.184, the relative viability (COR-L23; first compound 1.265 µM) was 0.199 and the relative viability (COR-L23; first compound 4 µM) was 0.166. It also gave a relative viability (EPLC-272H; first compound 0.04 µM) of 0.341, a relative viability (EPLC-272H; first compound 0.1265 µM) of 0.262 and a relative viability (EPLC-272H; first compound 0.4 µM) of 0.319. The relative viability (EPLC-272H; first compound 1.265 µM) was 0.307, the relative viability (EPLC-272H; first compound 4 µM) was 0.0795 and the relative viability (NCI-H2405; first compound 0.04 µM) was 0.965. It also gave a relative viability (NCI-H2405; first compound 0.1265 µM) of 1.16, a relative viability (NCI-H2405; first compound 0.4 µM) of 0.973 and a relative viability (NCI-H2405; first compound 1.265 µM) of 0.852. The relative viability (NCI-H2405; first compound 4 µM) was 0.954, the relative viability (NCI-H647; first compound 0.04 µM) was 0.159 and the relative viability (NCI-H647; first compound 0.1265 µM) was 0.194. It also gave a relative viability (NCI-H647; first compound 1.265 µM) of 0.184, a relative viability (NCI-H647; first compound 4 µM) of 0.157 and a relative viability (PC-14; first compound 0.04 µM) of 0.124. The relative viability (PC-14; first compound 0.1265 µM) was 0.114, the relative viability (PC-14; first compound 0.4 µM) was 0.0722 and the relative viability (PC-14; first compound 1.265 µM) was 0.129. The relative viability (PC-14; first compound 4 µM) was 0.074, the relative viability (NCI-H2347; first compound 0.04 µM) was 0.413 and the relative viability (NCI-H2347; first compound 0.1265 µM) was 0.399. For the same compound, the relative viability (NCI-H2347; first compound 0.4 µM) was 0.433, the relative viability (NCI-H2347; first compound 1.265 µM) was 0.424 and the relative viability (NCI-H2347; first compound 4 µM) was 0.441. The relative viability (EKVX; first compound 0.04 µM) was 0.468, the relative viability (EKVX; first compound 0.1265 µM) was 0.407 and the relative viability (EKVX; first compound 0.4 µM) was 0.301. For the same compound, the relative viability (EKVX; first compound 4 µM) was 0.352, the relative viability (NCI-H1734; first compound 0.04 µM) was 0.398 and the relative viability (NCI-H1734; first compound 0.1265 µM) was 0.423. It also gave a relative viability (NCI-H1734; first compound 0.4 µM) of 0.361, a relative viability (NCI-H1734; first compound 1.265 µM) of 0.391 and a relative viability (NCI-H1734; first compound 4 µM) of 0.375.
